Laboratory results taken from patent publication US20160158253A1, “TREATMENT OF PANCREATIC CANCER WITH A COMBINATION OF A HYPOXIA-ACTIVATED PRODRUG AND A TAXANE” (THRESHOLD PHARMACEUTICALS, INC., priority 2013, published 2016).
Marks after values point to notes of the source that are not given here.

Tests used:
[1] = tested on: Hs766t human PDAC xenograft; test: Antitumor activity in Hs766t PDAC xenograft model; format: in vivo, nude mice; conditions: for MT (Median Time to reaching the size of 1000 mm^3): Kaplan-Meier; for TGI (Tumor Growth Inhibition): T 50 mg/kg i.p., nP 30 mg/kg i.v., G 60 mg/kg i.p.
Protocol: (§1) Dosing for the animal studies described below were selected as follows. In some current human clinical trials, TH-302 is given on once-a-week schedules (QW) of three weeks on, one week off (at a dose of 240 or 340 mg/m^2). […] In xenograft models, gemcitabine is administered at 60 or 80 mg/kg in four three-day cycles (Q3D×4) (Teicher et al., Cancer Res. 6:1016, 2000; Marriman et at., invest New Drugs. 14:243, 1996). […] The therapy was administered every three days for five cycles (Q3D×5).
(§2) The animal studies were conducted using, xenograft models for pancreatic ductal adenocarcinoma (PDAC). Tumors were generated in the flanks of nude mice by subcutaneous injection of established human PDAC cell lines. Four PDAC xenograft models were established by subcutaneous implantation of either Hs766t, MIA PaCa-2, PANC-1 or BxPC-3 cells into the flank of nude mice. Mice were implanted subcutaneously in the right flank with 5×10^6 cells in 30% Matrilgel™ at a dose volume of 200 μL. Mice bearing similar tumor size were randomly assigned into different groups when tumor size reached 150 mm^3. […] Antitumor activity of the G+nP+T triplet combination therapy was assessed, and compared with the G+nP doublet combination therapy.
(§3) Tumor growth delay 1000 mm^3 (TGD1000) was determined as the difference in time required for the mean tumor size to reach 1000 mm^3 between treated group and vehicle control group. TGD1000 of T monotherapy and G+nP doublet combination therapy groups was 47 and 35 days, respectively, while TGD1000 of G+nP+T triplet combination therapy group was 53 days. […] (see Table 1, below).
(§4) In three of the four models, the triplet combination therapy increased the complete response rate (CR) relative to the G+nP combination therapy or the T monotherapy. CR was defined as disappearance of tumor or tumor size is <100 mm^3 at a study point. Of note, the CR rate of the G+nP+T combination therapy in the PANC-1 model reached 100%, compared to 0% and 60% in the T monotherapy and G+nP combination therapy groups, respectively. In the MIA PaCa-2 model, CR rate in the triplet group was 90%, compared to 0 and 10% in the T monotherapy and G+nP doublet combination therapy groups, respectively.

[2] = tested on: MIA PaCa-2 human PDAC xenograft; test: Antitumor activity in MIA PaCa-2 PDAC xenograft model; format: in vivo, nude mice
Protocol: as §1, §2, §3, §4

[3] = tested on: PANC-1 human PDAC xenograft; test: Antitumor activity in PANC-1 PDAC xenograft model; format: in vivo, nude mice
Protocol: as §1, §2, §3, §4

[4] = tested on: BxPC-3 human PDAC xenograft; test: Antitumor activity in BxPC-3 PDAC xenograft model; format: in vivo, nude mice
Protocol: as §1, §2, §3, §4

[5] = Treatment-induced body weight loss in PDAC tumor bearing and CD-1 non-tumor bearing mice; format: in vivo
Protocol: Another series of studies were conducted to investigate the treatment-induced body weight (BW) loss in both PDAC tumor bearing animals and CD-1 immunocompetent mice. Body weight was measured daily or twice a week.

[6] = Hematological testing (Hemavet 950 blood analyzer); format: in vivo, PANC-1 tumor bearing nude mice and CD-1 mice; conditions: 24 hrs after last treatment; T and G+nP vs V, triplet vs G+nP
Protocol: To determine the effect of combination therapy on hematopoiesis, the same treatment was employed in PANC-1 tumor bearing nude mice as well as immunocompetent CD-1 mice. Twenty-four hrs. after the last treatment, the animals were euthanized under CO2, blood was collected via heart puncture, and hematological analysis was performed using a Hemavet 950™ blood analyzer. As shown in FIG. 2 (mean±SEM), G+nP combination therapy or T monotherapy reduced neutrophils, lymphocytes, and monocytes, and complete white blood cell count (WBC), compared with V(*p<0.05 compared with V).

PANC-1 xenograft tumors = test: Pharmacodynamic biomarkers by histology, immunohistochemistry or in situ assay in PANC-1 tumors; format: in vivo, nude mice
Protocol: We used a panel of biomakers to characterize Hs766t, MIA PaCa-2, PANC-1 and BxPC3 xenograft tumors. […] We chose a moderate hypoxic level tumor model, PANC-1, to investigate the pharmacodynamic changes caused by the different treatments, PANC-1 tumor-bearing animals were treated with vehicle, TH-302, G+nP, and G+nP+T when tumor size was approximately 500 mm^3. One day after the last treatment, tumors were harvested, fixed, paraffin-embedded, and sectioned for staining with a panel of histology and immunohistochemistry markers.
Similar to as observed for apoptosis, γH2AX-positive cells were increased in all three drug treated groups compared with V. 31±1.3 positive cells/field in the G+nP+T triplet group, compared with 19 in T alone or G+nP and less than 4 in V (p<0.05). Cells with DNA damage were evenly distributed in both the hypoxic and oxic compartments in non-necrotic regions. Ki67 is a marker of cell proliferation, labeling all active phases of the cell cycle including S, G2, and mitosis.
To determine the effect of combination therapy on tumor microenvironment, tumor stroma and hypoxia were investigated. Tumor stroma is composed of extracellular matrix protein and cellular elements. Thus, collagen I and III, as main parts of extracellular matrix were evaluated by Picrosirius red staining. Activated fibroblasts in the stroma were analyzed by α-SMA. […] There was no co-localization between exogenous pimonidazole- and endogenous CAIX-positive cells, CA-IX was found in the necrotic cells as well.

[7] = von Frey neuropathy assay (mechanical hyperalgesia); format: in vivo; conditions: male CD-1 mice; compared to V, from 9 days after initiation of treatment
Protocol: To determine the effect of combination therapy on the nervous system, male CD-1 mice were randomly divided into 4 groups with 10 mice each. Mechanical hyperalgesia tests were performed prior to the initial treatment and during the study by a trained observer who was unaware of the animal group identities. […] This hyperalgesia persisted to 37 days with peaks at day 16 and day 23 (p<0.001, two-way ANOVA), and gradually returned to baseline at day 43. […] There was no difference between G+nP+T combination therapy treated and G+nP combination therapy treated animals.

[8] = tested on: cell lines with mutations in BRCA1 or BRCA2; test: Sensitivity of BRCA1 or BRCA2 mutated cell lines to TH-302; format: cell-based
Source text: A human clinical trial can include analysis of any of a series of biomarkers. […] The prevalence of BRCA1 and BRCA2 mutations in pancreatic cancer patients is between 5% and 19%, Thus, a trial can include collection of serum, plasma, and tissue samples for analysis of any markers useful for identifying suitable patient populations and/or liar monitoring the course of therapy.

[9] = Clinical injection site and administration reactions of TH-302; format: in vivo, human
Source text: Care in the administration of TH 302 will reduce the chance of perivenous infiltration. If any signs or symptoms of extravasation occur, the administration of TH 302 should be immediately terminated and restarted in another vein. TH 302 should always be administered via a freely flowing i.v. line, preferably, where feasible, through a central venous catheter. Administration through small veins, particularly on the hands and feet is discouraged. Because of the progressive nature of extravasation reactions, close observation and plastic surgery consultation is recommended.
TH 302 administration reactions have been observed. […] It is recommended that a steroid such as dexamethasone (or equivalent) be included in the antiemetic regimen prior to administration. Symptoms and signs of hypersensitivity include fever, myalgia, headache, rash, pruritus, urticaria, angioedema, chest discomfort, dyspnea, coughing, cyanosis, and hypotension. If the nature and the severity of the reaction require termination of treatment, it should be determined if the reaction may or may not be an immunoglobulin E mediated process. […] If the event is clearly anaphylaxis, then epinephrine ( 1/1000, 0.3 to 0.5 mL given subcutaneously or equivalent) should be considered as well as standard treatment approaches. […] Reactions to the administration of TH 302 should be assessed and treated in a similar manner. […]

[10] = tested on: pancreatic ductal adenocarcinoma (PDAC); conditions: TH-302 added to gemcitabine (GEM) versus GEM only; cited from earlier work
pancreatic cancer = conditions: Phase 3 trial, pancreatic cancer patients; cited from earlier work
[11] = MIA PaCa-2, TV 1000 mm^3 as endpoint
[12] = PANC-1, TV 1000 mm^3 as endpoint

## Cn1c(COP(=O)(NCCBr)NCCBr)cnc1[N+](=O)[O-] [TH-302, (2-bromoethyl)({[(2-bromoethyl)amino][(2-nitro-3-methylimidazol-4-yl)methoxy]phosphoryl})amine]
[1]; TV 1000 mm^3 as endpoint
  MT (Median Time to reaching the size of 1000 mm^3): 59.5*^,a day
  ILS (Increased Life Span): 297%
[1]; TV 1000 mm^3 as endpoint, listed as T
  MT (Median Time to reaching the size of 1000 mm^3): 59.5 days
[1]; Q3D×5, delay of mean tumor size to 1000 mm^3
  TGD1000 (vs. vehicle): 47 days
[1]; Q3D×5
  TGI (Tumor Growth Inhibition): 82.1%*
[1]; Q3D×5, listed as T
  TGI (Tumor Growth Inhibition): 82.1%
[1]; tumor gone or <100 mm^3
  CR (Complete Response) of 10: 0 of 10
[2]; MIA PaCa-2
  CR (Complete Response) of 10: 0 of 10
[2]; MIA PaCa-2, Q3D×5
  TGD1000 (vs. vehicle): 6 days
[2]; MIA PaCa-2, T 50 mg/kg i.p., nP 30 mg/kg i.v., G 60 mg/kg i.p., Q3D×5
  TGI (Tumor Growth Inhibition): 27%
[2]; [11]
  ILS (Increased Life Span): 26%
  MT (Median Time to reaching the size of 1000 mm^3): 34 days
[2]; MIA PaCa-2 model
  CR rate: 0%
[3]; PANC-1
  CR (Complete Response) of 10: 0 of 10
[3]; PANC-1, Q3D×5
  TGD1000 (vs. vehicle): 7 days
[3]; PANC-1, T 50 mg/kg i.p., nP 30 mg/kg i.v., G 60 mg/kg i.p., Q3D×5
  TGI (Tumor Growth Inhibition): 44.5%
[3]; [12]
  ILS (Increased Life Span): 48%
  MT (Median Time to reaching the size of 1000 mm^3): 31 days
[3]; PANC-1 model
  CR rate: 0%
[4]
  CR (Complete Response) of 10: 0 of 10
[4]; Q3D×5
  TGD1000 (vs. vehicle): 11 days
[4]; T 50 mg/kg i.p., nP 30 mg/kg i.v., G 60 mg/kg i.p., Q3D×5
  TGI (Tumor Growth Inhibition): 43%
[4]; TV 1000 mm^3 as endpoint
  ILS (Increased Life Span): 52%
  MT (Median Time to reaching the size of 1000 mm^3): 24 days
[5]; BxPC3, Nude ♀ (n = 10)
  maximal body weight loss: 0%
[5]; Hs766t, Nude ♀ (n = 10)
  maximal body weight loss: 0%
[5]; MIA PaCa-2, Nude ♀ (n = 10)
  maximal body weight loss: 0%
[5]; Non-tumor CD-1 ♀ (n = 6)
  maximal body weight loss: 0%
[5]; Non-tumor CD-1 ♂ (n = 10)
  maximal body weight loss: 0%
[5]; PANC-1 #1, Nude ♀ (n = 10)
  maximal body weight loss: 0%
[5]; PANC-1 #2, Nude ♀ (n = 5)
  maximal body weight loss: 0%
[5]; PANC-1 #3, Nude ♀ (n = 10)
  maximal body weight loss: 0%
[5]; across the 8 studies, G+nP range in 7 of 8 studies
  maximal BW loss (percentage of mean maximal BW loss compared with pretreatment): 0%
[6]
  neutrophils, lymphocytes, monocytes and complete white blood cell count (WBC): reduced
PANC-1 xenograft tumors; V less than 4
  γH2AX-positive cells (DNA damage): 19 positive cells/field
PANC-1 xenograft tumors; morphometric analysis
  extracellular collagen (Picrosirius red staining): no effect
  α-SMA expression (activated fibroblasts in stroma): no effect
PANC-1 xenograft tumors; non-necrotic regions, V 0.8±0.1
  number of apoptotic cells (TUNEL assay): 3±0.2 per field
PANC-1 xenograft tumors; one day after last treatment, V 9%
  tumor necrotic fraction (Masson's Trichrome histology staining): 35%
PANC-1 xenograft tumors; pimonidazole, V 12.4+2%
  hypoxic fraction (HF): 10.6±1.1%
[7]
  hind-paw mechanical hyperalgesia: no mechanical hyperalgesia
[8]
  sensitivity to TH-302: Enhanced sensitivity
[9]; i.v. administration
  injection site reactions reported: Supravenous erythema and hyperpigmentation
[9]; responded to steroid and antihistamine treatment
  administration reactions observed: lip swelling and urticaria
[10]
  progression-free survival: significant increase

## Nc1ccn([C@@H]2O[C@H](CO)[C@@H](O)C2(F)F)c(=O)n1 [gemcitabine]
Pancreatic cancer
  median overall survival: 6.6 months
